Laboratory results: US8906895B2, “Optically active dibenzylamine derivative, and method for preparing thereof” (Kowa Company, Ltd., priority 2010, dated 2014)
Marks after values point to notes of the source that are not given here.

Key:
[1] = tested on: human HMG-CoA reductase mRNA; assay: HMG-CoA reductase mRNA expression in HepG2 cells by quantitative real-time PCR; type: cell-based; details: 10 μM, 8 hours; for HMG-CoA reductase mRNA expression amount (Relative value based on average value of control taken as 1): average ± standard error, 3 samples
Description: A test compound was added to the HepG2 cells and the cells were cultured for 8 hours, and then HMG-CoA reductase mRNA expression amount was measured by quantitative real-time PCR.
Specifically, the HepG2 cells were inoculated on a 24-well plate at a density of 2×10^5 cells/well and cultured overnight, and then a test compound dissolved in dimethyl sulfoxide (DMSO), or only DMSO was added to the culture medium in a 1/1000-fold amount. The cells were cultured at 37° C. for 8 hours in a CO2 incubator, and then added with 500 μL of ISOGEN (NIPPON GENE, Catalog No. 31-02501), and the total RNA was extracted. cDNA was synthesized from the extracted total RNA by using High Capacity cDNA Reverse Transcription Kit (Applied Biosystems, Catalog No. 4368813). Expression amount of human HMG-CoA reductase mRNA was measured by quantitative real-time PCR using a set of the following primers: 5′-[…]-3′ (SEQ ID No:1) and 5′-[…]-3′ (SEQ ID No:2) specific to human HMG-CoA reductase, and Fast SYBR Green Master Mix (Applied Biosystems, Catalog No. 4385614). As the measurement apparatus, 7900HT Fast Realtime PCR System was used.
The resulting measured values of the HMG-CoA reductase mRNA expression amount were corrected between those obtained for test compound addition samples (3 samples for each compound) and control samples (sample added with only DMSO, 3 samples) using the β-actin mRNA expression amounts as index. The corrected HMG-CoA reductase mRNA expression amount of the test compound addition sample was represented with a relative value (average±standard error) based on average of the HMG-CoA reductase mRNA expression amounts of the control samples, which was taken as 1.

[2] = tested on: LDL receptor (LDLR); assay: LDL receptor amount in HepG2 cells by Western blotting; type: cell-based, human; details: 48 hours; for LDL receptor amount (Relative value based on value of control taken as 1): 10 μM in culture medium, corrected by β-actin; for LDL receptor amount-increasing action in comparison with the control (in words): 10 μM
Description: (§1) Influence of a test compound on amount of PCSK9 protein and amount of LDL receptor was studied by adding the test compound to human hepatoma cell strain, HepG2 cells, and measuring amount of PCSK9 protein and amount of LDL receptor (LDLR) by Western blotting after culture for 48 hours.
(§2) Specifically, the HepG2 cells were inoculated on a 6-well plate at a density of 5×10^5 cells/well and cultured overnight, and a test compound dissolved in dimethyl sulfoxide (DMSO), or only DMSO was added to the culture medium in a 1/1000-fold amount. The cells were cultured at 37° C. for 48 hours in a CO2 incubator, the culture was added with 100 μL of the RIPA buffer (50 mM Tris-HCl, pH 7.8, 150 mM NaCl, 1% NP-40, 0.5% sodium deoxycholate, 0.1% SDS, proteinase inhibitor) to disrupt the cells, and proteins were extracted. The extracted proteins were centrifuged at 10000×g, the supernatant was collected, and added with an SDS sample buffer (60 mM Tris-HCl, pH 6.8, 2% SDS, 10% glycerol, 3% mercaptoethanol), and the mixture was subjected to separation by SDS-PAGE (SDS-polyacrylamide gel electrophoresis) using 8% acrylamide gel. After completion of the separation, the proteins were fixed on a nitrocellulose membrane by using iBlot Gel Transfer System (Invitrogen), and blocked by using Block Ace (DS Pharma Biomedical, Catalog No. UK-B 80).
(§3) Detection of the PCSK9 protein, LDLR, and β-actin protein, and measurement of the amounts thereof were performed by labeling the proteins on the membrane using Anti-PCSK9 (Cayman, Catalog No. 1000718), Anti-LDLR (BioVision, Catalog No. 3839-100), and Anti-β-Actin (Sigma, Catalog No. A5316), respectively, as the primary antibody, and Anti-Rabbit IgG-HRP (Sigma, Catalog No. A0545) or Anti-Mouse IgG-HRP (Sigma, Catalog No. A4416) as the secondary antibody, reacting a chemiluminescence reagent (substrate of HRP) with the secondary antibody on the membrane, and then measuring signal intensity using Lumino Image Analyzer LAS-3000 (Fuji Photo Film). The resulting signal intensity wag numprirally evaluated by using image analysis software, Science Lab 2002 Multi Gauge (Fuji Photo Film).
(§4) The resulting measured values of the PCSK9 protein amount and the LDL receptor amount were corrected between those obtained for the sample added with a test compound and the control sample (sample added with only DMSO) using the β-actin protein amounts as index. The corrected PCSK9 protein amount and LDL receptor amount of the test compound addition sample were represented by relative values based on the PCSK9 protein amount and LDL receptor amount of the control sample, respectively, which were taken as 1.

[3] = tested on: PCSK9 protein; assay: PCSK9 protein amount in HepG2 cells by Western blotting; type: cell-based, human; details: 48 hours; for PCSK9 protein amount (Relative value based on value of control taken as 1): 10 μM in culture medium, corrected by β-actin; for PCSK9 protein amount-reducing action in comparison with the control (in words): 10 μM
Description: as §1, §2, §3, §4

[4] = tested on: LDL cholesterol in the plasma; assay: Blood LDL cholesterol-reducing action in normal hamsters; type: in vivo, male Syrian hamsters; details: for LDL cholesterol-reducing rate: based on control group; for Average LDL cholesterol amount ± standard deviation: plasma 4 hours after final administration, control 50 ± 3.0
Description: (S)-trans-{4-[({2-[({1-[3,5-Bis(trifluoromethyl)phenyl]ethyl}{5-[2-(methylsulfonyl)ethoxy]pyrimidin-2-yl}amino)methyl]-4-(trifluoromethyl)phenyl}(ethyl)amino)methyl]cyclohexyl}acetic acid ((S)-isomer compound (III), optical purify: >99% ee) was suspended in a 0.5% methylcellulose solution, and orally administered repeatedly to normal hamsters (male Syrian hamsters) once a day over 14 days by using a metal probe. Four hours after the final administration, blood was collected, and plasma was obtained. Lipoproteins in the plasma were analyzed by automatic measurement using an HPLC system based on the post-labeling method according to the method described in J. Lipid. Res., 43, p805-814. Specifically, 15 μL of a plasma sample was diluted 10 times with PBS containing 1 mM EDTA, and 80 μl of the diluted sample was injected into a gel filtration column (Superose 6 column (column size: 10×300 mm), GE Healthcare Bioscience) connected to an HPLC system (liquid feeding unit: Shimadzu LC-20A System, Shimadzu). Separation was performed at a flow rate of 0.5 mL/minute and a column temperature of 40° C. by using PBS containing 1 mM EDTA as a running buffer. A cholesterol-measuring reagent (Cholesterol E-Test Wako, Wako Pure Chemical Industries) was mixed with the eluate from the column at a flow rate of 0.25 mL/minute, and the reaction was performed at 40° C. in a reaction coil (0.5 mm×15 m) with feeding the eluate. Cholesterols in the eluate obtained from the reaction coil were detected at a wavelength of 600 nm. Area ratio of the LDL fraction based on the resulting total peak area of cholesterols was calculated, and the total cholesterol amount measured beforehand by using Cholesterol E-Test Wako was multiplied by the area ratio of the LDL fraction to calculate LDL cholesterol amount.
Six normal hamsters were used for each of the control group (0.5% methylcellulose solution administration group) and the test compound administration groups (10 mg/kg body weight and 30 mg/kg body weight of (S)-isomer compound (III) administration groups). The hamsters were divided into the groups beforehand on the basis of the total plasma cholesterol value.
The symbols * and *** in Table 3 means that there were significant differences at a significance level of 5% or less (p<0.05) and a significance level of 0.1% or less (p<0.001), respectively, as determined by a multi-group comparison test (Dunnett's multiple comparison test) performed between the control group and each of the test compound administration groups. Further, the LDL cholesterol amount-reducing rate of the test compound administration group based on the control group was calculated in accordance with the following equation 1 as an LDL cholesterol-reducing rate, and indicated in terms of percentage. LDL cholesterol-reducing rate(%)=[(Average of LDL cholesterol amount of control group−Average of LDL cholesterol amount of compound administration group)/Average of LDL cholesterol amount of control group]×100 (Equation 1)

[5] = tested on: human PCSK9 mRNA; assay: PCSK9 mRNA expression in HepG2 cells by quantitative real-time PCR; type: cell-based; details: 10 μM, 24 hours
Description: Specifically, the HepG2 cells were inoculated on a 24-well plate at a density of 2×10^5 cells/well and cultured overnight, and then a test compound dissolved in dimethyl sulfoxide (DMSO), or only DMSO was added to the culture medium in a 1/1000-fold amount. The cells were cultured at 37° C. for 24 hours in a CO2 incubator, and then added with 500 μl of ISOGEN (NIPPON GENE, Catalog No. 31-02501), and the total RNA was extracted. cDNA was synthesized from the extracted total RNA by using High Capacity cDNA Reverse Transcription Kit (Applied Biosystems, Catalog No. 4368813). Expression amount of human PCSK9 mRNA was measured by quantitative real-time PCR using primers specific to human PCSK9 (Kourimate S. et al., J. Biol. Chem., Vol. 283, p9666), and Fast SYBR Green Master Mix (Applied Biosystems, Catalog No. 4385614). As the measurement apparatus, 7900HT Fast Realtime PCR System was used.
The resulting measured values of the PCSK9 mRNA expression amount were corrected between those obtained for test compound addition samples (3 samples) and control samples (sample added with only DMSO, 3 samples) using the β-actin mRNA expression amounts as index. […]

[6] = 10 mg/kg orally once a day over 14 days
[7] = 30 mg/kg orally once a day over 14 days

| Compound | Effect on HMG-CoA reductase mRNA expression amount in comparison with the control (in words) [1] | HMG-CoA reductase mRNA expression amount (Relative value based on average value of control taken as 1) [1] | LDL receptor amount (Relative value based on value of control taken as 1) [2] | LDL receptor amount-increasing action in comparison with the control (in words) [2] | PCSK9 protein amount (Relative value based on value of control taken as 1) [3] | PCSK9 protein amount-reducing action in comparison with the control (in words) [3] | LDL cholesterol-reducing rate [4, 6] [%] | Average LDL cholesterol amount ± standard deviation [4, 6] | LDL cholesterol-reducing rate [4, 7] [%] | Average LDL cholesterol amount ± standard deviation [4, 7] | Blood LDL cholesterol-reducing action (in words) ([4]; normal hamsters, 10 and 30 mg/kg orally, 14 days) | Effect on expression amount of PCSK9 mRNA in comparison with the control (in words) [5] | PCSK9 mRNA expression amount (Relative value based on average value of control taken as 1) ([5]; average ± standard error, 3 samples) |
| --- | --- | --- | --- | --- | --- | --- | --- | --- | --- | --- | --- | --- | --- |
| CCN(C[C@H]1CC[C@H](CC(=O)O)CC1)c1ccc(C(F)(F)F)cc1CN(c1ncc(OCCS(C)(=O)=O)cn1)C(C)c1cc(C(F)(F)F)cc(C(F)(F)F)c1 (mixture of isomers) [Racemate compound (I), trans-{4-[({2-[({1-[3,5-Bis(trifluoromethyl)phenyl]ethyl}{5-[2-(methylsulfonyl)ethoxy]pyrimidin-2-yl}amino)methyl]-4-(trifluoromethyl)phenyl}(ethyl)amino)methyl]cyclohexyl}acetic acid, reference compound] | remarkably reduced | 0.37 ± 0.02 | 0.73 | almost no such actions | 0.68 | almost no such actions |  |  |  |  |  |  |  |
| CCN(C[C@H]1CC[C@H](CC(=O)O)CC1)c1ccc(C(F)(F)F)cc1CN(c1ncc(OCCSC)cn1)C(C)c1cc(C(F)(F)F)cc(C(F)(F)F)c1 (relative stereo) [trans-{4-[({2-[({1-[3,5-Bis(trifluoromethyl)phenyl]ethyl}{5-[2-(methylthio)ethoxy]pyrimidin-2-yl}amino)methyl]-4-(trifluoromethyl)phenyl}(ethyl)amino)methyl]cyclohexyl}acetic acid] | remarkably reduced | 0.25 ± 0.03 |  |  |  |  |  |  |  |  |  |  |  |
| CCN(C[C@H]1CC[C@H](CC(=O)O)CC1)c1ccc(C(F)(F)F)cc1CN(c1ncc(OCCS(C)(=O)=O)cn1)[C@H](C)c1cc(C(F)(F)F)cc(C(F)(F)F)c1 [(R)-Isomer compound (II), (R)-trans-{4-[({2-[({1-[3,5-Bis(trifluoromethyl)phenyl]ethyl}{5-[2-(methylsulfonyl)ethoxy]pyrimidin-2-yl}amino)methyl]-4-(trifluoromethyl)phenyl}(ethyl)amino)methyl]cyclohexyl}acetic acid] |  |  | 0.93 | almost no such actions | 1.05 | almost no such actions |  |  |  |  |  |  |  |
| CCN(C[C@H]1CC[C@H](CC(=O)O)CC1)c1ccc(C(F)(F)F)cc1CN(c1ncc(OCCS(C)(=O)=O)cn1)[C@@H](C)c1cc(C(F)(F)F)cc(C(F)(F)F)c1 [(S)-Isomer compound (III), (S)-trans-{4-[({2-[({1-[3,5-Bis(trifluoromethyl)phenyl]ethyl}{5-[2-(methylsulfonyl)ethoxy]pyrimidin-2-yl}amino)methyl]-4-(trifluoromethyl)phenyl}(ethyl)amino)methyl]cyclohexyl}acetic acid] |  |  | 1.73 | remarkably increased | 0.28 | markedly reduced | 20.0 | 40 ± 2.6* mg/dl | 38.0 | 31 ± 2.6*** mg/dl | superior blood LDL cholesterol-reducing action | remarkably reduced | 0.18 ± 0.13 |
